The subject of test [1] is plasma membrane Ca2+-ATPase (PMCA; isoform not resolved). Type of test: cell-based.
A further test addresses Na+/K+-ATPase (α1β1) (Sus scrofa, UniProt P05024). Nature of the test: biochemical.

In the case of `C[C@@H]1O[C@@H](O[C@H]2CC[C@@]3(C)[C@H](CC[C@@H]4[C@@H]3CC[C@]3(C)[C@@H](C5=CC(=O)OC5)CC[C@]43O)C2)CC[C@H]1O` [compound 2, digitoxigenin-α-L-amiceto-pyranoside], the “% inhibition at 100 nM” value in test [1] is ~ 25% inhibition at 100. Besides, the IC50 (usually the concentration that gives 50% inhibition) against Na+/K+-ATPase (α1β1) turned out to be 41 ± 3 nM.

In the case of `C[C@@H]1O[C@@H](O[C@H]2CC[C@@]3(C)[C@H](CC[C@@H]4[C@@H]3CC[C@]3(C)[C@@H](C5=CC(=O)OC5)CC[C@]43O)C2)[C@H](O)[C@H](O)[C@H]1O` [compound 1, digitoxigenin-α-L-rhamno-pyranoside], half-maximal inhibition at Na+/K+-ATPase (α1β1) (IC50) was put at 12 ± 1 nM.

Source of the values: article PMC8671332 (Journal of cellular biochemistry, 2021).
